Assay results reported in patent US20250214991A1 (Oncopia Therapeutics, Inc. d/b/a/ SK Life Science Labs, priority 2022, published 2025).

Experiments:
IKZF1 = IKZF1 (Homo sapiens (Human), UniProt Q13422+Q96SW2); experiment: In vitro IKZF1 HiBit Assay (HEK293T Flp-in-HiBiT-IKZF1 stable cell line); format: cell-based; conditions: HEK293T Flp-in-HiBiT-IKZF1 stable cell line, 6 hrs incubation; for DC50: read-out: IKZF1 HiBit DC50; for Dmax: HEK-293T, read-out: IKZF1 HiBit Dmax (%)
Protocol: In Vitro IKZF1 HiBit Assay
The HiBiT protein tagging system was applied to modified Cells: modified HEK293T Flp-in-HiBiT-IKZF1 stable cell line (polyclone) via a CRISPR/Cas9-mediated insertion of the HiBiT peptide tag (Promega™) to the N-terminus of the […] gene locus (Neon™ transfection system).
25 nL of diluted compound is transferred to assay plates (Corning3571) using ECHO550, the final DMSO concentration @ 0.1%. The cells are seeded in 3000/25 μL/well to compound plates. The plates are incubated for 6 hrs in TC incubator. The amount of Nano-Glo® HiBiT lytic reagent needed to perform the desired experiments is calculated. The Nano-Glo® HiBiT lytic reagent is brought to room temperature. The LgBiT protein is diluted to 1:100 and the Nano-Glo® HiBiT lytic substrate is brought to 1:50 into an appropriate volume of room temperature Nano-Glo® HiBiT lytic buffer. 15 μL of the detection reagent (or without LgBiT) is dispensed to corresponding well according to the layout. The plate is shaked for 10 mins at room temperature. After briefly centrifuge, the plateis read on Envision. At the indicated timepoints, the Nano-Glo® HiBiT lytic detection system (Promega™) was utilized for detecting bioluminescence of the HiBiT tag in treated cells: abundance of the tag is proportionate to the level of luminescence. Following normalization to DMSO, dose-response curves were plotted (GraphPad Prism) to determine the concentration points at which 50% of HiBiT-Ikaros degradation was achieved by each compound. The extent of degradation (range of luminescence) from the highest to lowest concentration points was calculated to determine the Dmax.
(§1) DC50, A: <1 nM; B: 1-10 nM; C: 10-100 nM; D: 100-1000 nM; E: 1000-10000 nM; F: >10,000 nM. Dmax, A: >80%; B: 60-80%; C: 40-60%; D: 20-40%; E: <20%.

IKZF2 = IKZF2 (Homo sapiens (Human), UniProt Q96SW2+Q9UKS7); experiment: In vitro IKZF2 HiBit Assay (HEK293T Flp-in-HiBiT cells); format: cell-based; conditions: HEK293T Flp-in-HiBiT cells, 6 hrs incubation; for DC50: read-out: IKZF2 HiBit DC50; for Dmax: HEK-293T, read-out: IKZF2 HiBit Dmax (%)
Protocol: In Vitro IKZF2 HiBit Assay
The HiBiT protein tagging system was applied to modified HEK293T Flp-in-HiBiT cells (polyclone) via a CRISPR/Cas9-mediated insertion of the HiBiT peptide tag (Promega™) to the N-terminus of the IKZF2 gene locus (Neon™ transfection system). Test and reference compounds are diluted from 1 mM at 3 folds for 11 doses. 25 nL of diluted compound is transfered to assay plates (Corning3570) using ECHO550, the final DMSO concentration @ 0.1%. The cells are seeded in 3000/25 μL/well to compound plates. It is then incubated for 6 hrs in TC incubator. The amount of Nano-Glo® HiBiT lytic reagent needed to perform the desired experiments is calculated. The Nano-Glo® HiBiT lytic reagent is brought to room temperature. The LgBiT protein is diluted to 1:100 and the Nano-Glo® HiBiT lytic substrate is diluted to 1:50 into an appropriate volume of room temperature Nano-Glo® HiBiT lytic buffer. 15 μL of the detection reagent (or without LgBiT) is dispensed to corresponding well according to the layout. The plate is then shaked for 10 mins at room temperature. After briefly centrifuge, the plate is read on Envision. At the indicated timepoints, the Nano-Glo® HiBiT lytic detection system (Promega™) was utilized for detecting bioluminescence of the HiBiT tag in treated cells: abundance of the tag is proportionate to the level of luminescence. Following normalization to DMSO, dose-response curves were plotted (GraphPad Prism) to determine the concentration points at which 50% of HiBiT-Helios degradation was achieved by each compound. The extent of degradation (range of luminescence) from the highest to lowest concentration points was calculated to determine the Dmax.
as §1

Sequence of IKZF2 (Q9UKS7 whole entry): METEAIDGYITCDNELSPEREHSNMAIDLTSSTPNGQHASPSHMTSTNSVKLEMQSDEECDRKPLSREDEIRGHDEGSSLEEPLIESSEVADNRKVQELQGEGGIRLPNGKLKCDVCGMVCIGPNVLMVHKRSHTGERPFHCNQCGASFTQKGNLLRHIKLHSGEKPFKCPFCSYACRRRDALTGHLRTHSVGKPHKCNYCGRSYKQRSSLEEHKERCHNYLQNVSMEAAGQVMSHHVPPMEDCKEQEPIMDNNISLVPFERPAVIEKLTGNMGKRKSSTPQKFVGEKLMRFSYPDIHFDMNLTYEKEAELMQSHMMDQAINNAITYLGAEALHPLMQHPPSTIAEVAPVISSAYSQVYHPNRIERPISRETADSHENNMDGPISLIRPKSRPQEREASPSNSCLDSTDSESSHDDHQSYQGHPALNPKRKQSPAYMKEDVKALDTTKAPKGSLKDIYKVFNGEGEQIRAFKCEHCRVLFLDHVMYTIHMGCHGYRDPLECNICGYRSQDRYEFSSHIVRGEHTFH
Sequence of IKZF2 (Q96SW2 whole entry): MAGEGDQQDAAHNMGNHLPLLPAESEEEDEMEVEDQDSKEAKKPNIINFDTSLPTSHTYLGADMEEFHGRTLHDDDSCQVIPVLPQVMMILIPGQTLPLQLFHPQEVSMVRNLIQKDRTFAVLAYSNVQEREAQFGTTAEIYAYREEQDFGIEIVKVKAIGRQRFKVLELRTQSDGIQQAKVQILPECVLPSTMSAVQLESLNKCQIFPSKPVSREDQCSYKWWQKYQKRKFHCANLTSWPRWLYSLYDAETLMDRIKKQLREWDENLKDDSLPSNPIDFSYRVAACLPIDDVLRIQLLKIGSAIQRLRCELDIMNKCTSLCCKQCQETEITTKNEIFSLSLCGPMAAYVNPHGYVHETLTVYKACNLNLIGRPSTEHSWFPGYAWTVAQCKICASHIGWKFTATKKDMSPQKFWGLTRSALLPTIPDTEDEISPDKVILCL
Sequence of IKZF2 (Q16531 2-1140 partner): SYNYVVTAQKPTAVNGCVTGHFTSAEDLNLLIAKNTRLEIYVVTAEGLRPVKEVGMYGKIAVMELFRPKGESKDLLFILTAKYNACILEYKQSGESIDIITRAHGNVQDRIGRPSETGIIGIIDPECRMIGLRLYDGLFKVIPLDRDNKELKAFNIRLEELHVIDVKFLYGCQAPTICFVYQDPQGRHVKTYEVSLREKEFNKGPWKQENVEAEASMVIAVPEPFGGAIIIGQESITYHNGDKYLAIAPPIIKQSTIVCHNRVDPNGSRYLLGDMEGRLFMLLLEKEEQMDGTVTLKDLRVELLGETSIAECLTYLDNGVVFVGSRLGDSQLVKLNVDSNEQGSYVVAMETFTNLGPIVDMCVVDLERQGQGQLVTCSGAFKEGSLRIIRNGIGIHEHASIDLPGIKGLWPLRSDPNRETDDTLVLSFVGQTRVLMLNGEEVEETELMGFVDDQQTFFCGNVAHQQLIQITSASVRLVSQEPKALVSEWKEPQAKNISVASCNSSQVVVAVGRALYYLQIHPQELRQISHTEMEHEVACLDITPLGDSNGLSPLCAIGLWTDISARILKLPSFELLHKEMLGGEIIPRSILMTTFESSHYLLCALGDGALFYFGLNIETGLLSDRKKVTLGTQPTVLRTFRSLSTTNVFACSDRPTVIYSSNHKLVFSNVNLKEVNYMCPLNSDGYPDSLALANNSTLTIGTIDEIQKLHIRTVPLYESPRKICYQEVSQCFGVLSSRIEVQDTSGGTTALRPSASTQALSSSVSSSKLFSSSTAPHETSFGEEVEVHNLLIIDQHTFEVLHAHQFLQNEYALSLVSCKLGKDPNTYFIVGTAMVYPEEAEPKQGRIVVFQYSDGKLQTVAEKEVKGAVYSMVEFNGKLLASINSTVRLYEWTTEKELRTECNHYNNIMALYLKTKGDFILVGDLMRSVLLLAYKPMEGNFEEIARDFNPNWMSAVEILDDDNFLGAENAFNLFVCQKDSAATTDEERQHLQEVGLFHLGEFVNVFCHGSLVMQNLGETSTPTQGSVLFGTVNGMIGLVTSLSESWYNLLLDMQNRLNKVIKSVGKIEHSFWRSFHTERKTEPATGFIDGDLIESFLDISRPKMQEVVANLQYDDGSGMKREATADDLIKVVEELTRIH
Sequence of IKZF1 (Q13422 whole entry): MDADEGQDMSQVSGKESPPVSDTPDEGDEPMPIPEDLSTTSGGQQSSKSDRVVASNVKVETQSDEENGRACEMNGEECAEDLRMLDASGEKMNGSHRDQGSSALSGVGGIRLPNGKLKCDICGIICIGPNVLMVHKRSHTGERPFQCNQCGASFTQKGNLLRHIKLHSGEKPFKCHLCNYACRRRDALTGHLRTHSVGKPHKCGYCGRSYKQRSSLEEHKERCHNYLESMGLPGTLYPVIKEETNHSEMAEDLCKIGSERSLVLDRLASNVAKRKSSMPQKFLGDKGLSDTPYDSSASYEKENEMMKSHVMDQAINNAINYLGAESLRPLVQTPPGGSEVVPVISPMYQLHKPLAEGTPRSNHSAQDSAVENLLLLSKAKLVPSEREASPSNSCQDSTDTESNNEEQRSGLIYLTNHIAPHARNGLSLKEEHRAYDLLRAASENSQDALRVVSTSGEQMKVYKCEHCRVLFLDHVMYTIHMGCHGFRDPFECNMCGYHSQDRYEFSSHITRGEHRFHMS
Sequence of IKZF1 (Q96SW2 whole entry): as the sequence (Q96SW2 whole entry) above
Sequence of IKZF1 (Q16531 2-1140 partner): as the sequence (Q16531 2-1140 partner) above

SMILES	DC50 (IKZF1)	Dmax (IKZF1)	DC50 (IKZF2)	Dmax (IKZF2)
O=C1CCC(N2Cc3cc(-c4cc(CN5CCCC5)c5c(C(F)(F)F)n[nH]c5n4)ccc3C2=O)C(=O)N1 (centres unmarked) [Example 134, 3-(1-oxo-5-(4-(pyrrolidin-1-ylmethyl)-3-(trifluoromethyl)-1H-pyrazolo[3,4-b]pyridin-6-yl)isoindolin-2-yl) piperidine-2,6-dione]	> 10000 nM	< 20%	1 to 10 nM	> 80%
O=C1CCC(N2Cc3cc(-c4cc(CN5CC(O)C5)c5ccn(C6CC6)c5n4)ccc3C2=O)C(=O)N1 (centres unmarked) [Example 135, 3-(5-(1-cyclopropyl-4-((3-hydroxyazetidin-1-yl)methyl)-1H-pyrrolo[2,3-b]pyridin-6-yl)-1-oxoisoindolin-2-yl) piperidine-2,6-dione]	> 10000 nM	< 20%	1 to 10 nM	> 80%
CS(=O)(=O)CCn1ccc2c(CN3CCCC3)cc(-c3ccc4c(c3)CN(C3CCC(=O)NC3=O)C4=O)nc21 (centres unmarked) [Example 136, 3-(5-(1-(2-(methylsulfonyl)ethyl)-4-(pyrrolidin-1-ylmethyl)-1H-pyrrolo[2,3-b]pyridin-6-yl)-1-oxoisoindolin-2-yl) piperidine-2,6-dione]	> 10000 nM	< 20%	10 to 100 nM	20 to 40%
CC(C)C1CN(Cc2cc(-c3ccc4c(c3)CN(C3CCC(=O)NC3=O)C4=O)nc3[nH]ccc23)CC1O (centres unmarked) [Example 137, 3-(5-(4-((3-hydroxy-4-isopropylpyrrolidin-1-yl)methyl)-1H-pyrrolo[2,3-b]pyridin-6-yl)-1-oxoisoindolin-2-yl) piperidine-2,6-dione]	10 to 100 nM	20 to 40%	1 to 10 nM	> 80%
CC(C)CC1CN(Cc2cc(-c3ccc4c(c3)CN(C3CCC(=O)NC3=O)C4=O)nc3[nH]ccc23)CC1O (centres unmarked) [Example 138, 3-(5-(4-((3-hydroxy-4-isobutylpyrrolidin-1-yl)methyl)-1H-pyrrolo[2,3-b]pyridin-6-yl)-1-oxoisoindolin-2-yl) piperidine-2,6-dione]	100 to 1000 nM	20 to 40%	1 to 10 nM	> 80%
CNC(=O)Cn1ccc2c(CN3CCCC3)cc(-c3ccc4c(c3)CN(C3CCC(=O)NC3=O)C4=O)nc21 (centres unmarked) [Example 150, 2-(6-(2-(2,6-dioxopiperidin-3-yl)-1-oxoisoindolin-5-yl)-4-(pyrrolidin-1-ylmethyl)-1H-pyrrolo[2,3-b]pyridin-1-yl)-N-methylacetamide]	> 10000 nM	< 20%	10 to 100 nM	60 to 80%
O=C1CCC(N2Cc3cc(-c4cc(CN5CC(CO)C5)c5ccn(C6CC6)c5n4)ccc3C2=O)C(=O)N1 (centres unmarked) [Example 152, 3-(5-(1-cyclopropyl-4-((3-(hydroxymethyl)azetidin-1-yl)methyl)-1H-pyrrolo[2,3-b]pyridin-6-yl)-1-oxoisoindolin-2-yl) piperidine-2,6-dione]	100 to 1000 nM	20 to 40%	10 to 100 nM	> 80%
CC(C)CC1CCN(Cc2cc(-c3ccc4c(c3)CN(C3CCC(=O)NC3=O)C4=O)nc3[nH]ccc23)C1 (centres unmarked) [Example 153, 3-(5-(4-((3-isobutylpyrrolidin-1-yl)methyl)-1H-pyrrolo[2,3-b]pyridin-6-yl)-1-oxoisoindolin-2-yl) piperidine-2,6-dione]	10 to 100 nM	40 to 60%	< 1 nM	> 80%
Cn1nc(N)c2nc(-c3ccc4c(c3)CN(C3CCC(=O)NC3=O)C4=O)cc(CN3CCCC3)c21 (centres unmarked) [Example 183, 3-(5-(3-amino-1-methyl-7-(pyrrolidin-1-ylmethyl)-1H-pyrazolo[4,3-b]pyridin-5-yl)-1-oxoisoindolin-2-yl) piperidine-2,6-dione]	10 to 100 nM	40 to 60%	1 to 10 nM	> 80%
Cc1cc(-c2ccc3c(c2)CN(C2CCC(=O)NC2=O)C3=O)nc2oc(CN3CCCC3)nc12 (centres unmarked) [Example 198, 3-(5-(7-methyl-2-(pyrrolidin-1-ylmethyl)oxazolo [5,4-b]pyridin-5-yl)-1-oxoisoindolin-2-yl) piperidine-2,6-dione]	> 10000 nM	< 20%	10 to 100 nM	40 to 60%
O=C1CCC(N2Cc3cc(-c4cc(CN5CCCC5)c5[nH]nc(C6CC6)c5n4)ccc3C2=O)C(=O)N1 (centres unmarked) [Example 202, 3-(5-(3-cyclopropyl-7-(pyrrolidin-1-ylmethyl)-1H-pyrazolo[4,3-b]pyridin-5-yl)-1-oxoisoindolin-2-yl) piperidine-2,6-dione]	1 to 10 nM	40 to 60%	1 to 10 nM	> 80%
O=C1CCC(N2Cc3cc(-c4cc(CN5CCCC5)c5cccc(C6CCC6)c5n4)ccc3C2=O)C(=O)N1 (centres unmarked) [Example 241, 3-(5-(8-cyclobutyl-4-(pyrrolidin-1-ylmethyl)quinolin-2-yl)-1-oxoisoindolin-2-yl) piperidine-2,6-dione]	> 10000 nM	< 20%	10 to 100 nM	40 to 60%
O=C1CCC(N2Cc3cc(-c4cc(CN5CCCC5)c5nccc(N6CCC6)c5n4)ccc3C2=O)C(=O)N1 (centres unmarked) [Example 243, 3-(5-(8-(azetidin-1-yl)-4-(pyrrolidin-1-ylmethyl)-1,5-naphthyridin-2-yl)-1-oxoisoindolin-2-yl) piperidine-2,6-dione]	100 to 1000 nM	20 to 40%	10 to 100 nM	60 to 80%
O=C1CCC(N2Cc3cc(-c4cc(CN5CCCC5)c5nccc(NC6CC6)c5n4)ccc3C2=O)C(=O)N1 (centres unmarked) [Example 244, 3-(5-(8-(cyclopropylamino)-4-(pyrrolidin-1-ylmethyl)-1,5-naphthyridin-2-yl)-1-oxoisoindolin-2-yl) piperidine-2,6-dione]	> 10000 nM	< 20%	10 to 100 nM	40 to 60%
O=C1CCC(N2Cc3cc(-c4cc(CN5CCCC5)c5nccc(C6CCC6)c5n4)ccc3C2=O)C(=O)N1 (centres unmarked) [Example 247, 3-(5-(8-cyclobutyl-4-(pyrrolidin-1-ylmethyl)-1,5-naphthyridin-2-yl)-1-oxoisoindolin-2-yl) piperidine-2,6-dione]	> 10000 nM	< 20%	10 to 100 nM	40 to 60%
O=C1CCC(N2Cc3cc(-c4cc(CN5CCCC5)c5nccc(OC6COC6)c5n4)ccc3C2=O)C(=O)N1 (centres unmarked) [Example 251, 3-(5-(8-(oxetan-3-yloxy)-4-(pyrrolidin-1-ylmethyl)-1,5-naphthyridin-2-yl)-1-oxoisoindolin-2-yl) piperidine-2,6-dione]	> 10000 nM	< 20%	10 to 100 nM	60 to 80%
O=C1CCC(N2Cc3cc(-c4cc(CN5CCCC5C(F)F)c5ccn(C6COC6)c5n4)ccc3C2=O)C(=O)N1 (centres unmarked) [Example 252, 3-(5-(4-((2-(difluoromethyl)pyrrolidin-1-yl)methyl)-1-(oxetan-3-yl)-1H-pyrrolo[2,3-b]pyridin-6-yl)-1-oxoisoindolin-2-yl) piperidine-2,6-dione]	> 10000 nM	< 20%	10 to 100 nM	40 to 60%
